Test results from patent US20110070190A1 (Roche Palo Alto LLC, priority 2009, published 2011).

Target: T1, HCV polymerase (NS5B570n-Con1) (Hepatitis C virus genotype 1b, UniProt Q9WMX2)
T1 construct: a 21 amino acid C-terminal deletion of full-length HCV polymerase; made in house; host or cells: E. coli BL21(DE3) pLysS, plasmid pET17b
Assay: HCV NS5B RNA polymerase activity (incorporation of radiolabeled nucleotide into acid insoluble RNA)
Assay type: biochemical, HCV Con1 strain
Description: The enzymatic activity of HCV polymerase (NS5B570n-Con1) was measured as the incorporation of radiolabeled nucleotide monophosphates into acid insoluble RNA products. Unincorporated radiolabeled substrate was removed by filtration and scintillant was added to the washed and dried filter plate containing radiolabeled RNA product. The amount of RNA product generated by NS5B570n-Con1 at the end of the reaction was directly proportional to the amount of light emitted by the scintillant.
The HCV polymerase used in the enzymatic activity assay is a 21 amino acid C-terminal deletion of full-length HCV polymerase derived from HCV Con1 strain, genotype 1b (GenBank accession number AJ242654) (NS5B570n-Con1). The NS5B570n-Con1 was sub-cloned downstream to the T7 promoter of the plasmid expression construct pET17b and transformed into E. coli strain BL21(DE3) pLysS for protein expression. A single colony was used to start an innoculum for a 10 L culture in LB media supplemented with 100 μg/mL ampicillin at 37° C. Protein expression was induced by the addition of 0.25 mM isopropyl-β-D-thiogalactopyranoside (IPTG) when the optical density of the culture at […] was 0.8. Induction of protein expression was carried out at 30° C. for 16 h after which the cells were harvested by centrifugation. NS5B570n-Con1 was purified to homogeneity using a three-column purification protocol including subsequent column chromatography on Ni-NTA, SP-Sepharose HP and Superdex 75 resins.
Enzymatic reactions in the presence of cIRES RNA template (see paragraph [00213]) contained 20 nM cIRES RNA, 20 nM NS5B570n-Con1 enzyme, 0.5 μCi of tritiated UTP (Perkin Elmer catalog no. TRK-412; specific activity: 30 to 60 Ci/mmol;), 1 μM each ATP, CTP, and GTP, 40 mM Tris-HCl pH 8.0, 40 mM NaCl, 4 mM DTT (dithiothreitol), 4 mM MgCl2, 5 μl of compound serial diluted in DMSO, and nuclease-free water to a final reaction volume of 50 μl. Enzymatic reactions in the presence of poly A RNA template (see paragraph [00213]) contained 20 nM Poly A:oligo(rU)16 premixed (see section 0004), 20 nM NS5B570n-Con1 enzyme, 1 μCi of tritiated UTP (Perkin Elmer catalog no. TRK-412; specific activity: 30 to 60 Ci/mmol), 40 mM Tris-HCl pH 8.0, 40 mM NaCl, 4 mM DTT (dithiothreitol), 4 mM MgCl2, 5 μl of compound serial diluted in DMSO, and nuclease-free water to a final reaction volume of 50 μl. Reaction mixtures were assembled in 96-well filter plates (cat #MADVN0B, Millipore Co.) and incubated for 2 h at 30° C. Reactions were stopped by addition of 10% final (v/v) trichloroacetic acid and incubated for 40 min at 4° C. Reactions were filtered, washed with 8 reaction volumes of 10% (v/v) trichloroacetic acetic acid, 4 reaction volumes of 70% (v/v) ethanol, air dried, and 25 μl of scintillant (Microscint 20, Perkin-Elmer) was added to each reaction well.
Two RNA templates were used to assay compounds described herein. The cIRES RNA template was 377 nucleotide long and consisted of a partial complementary sequence (36 nucleotides) of the core protein, followed by 341 nucleotide of the complementary sequence of the internal ribosome entry site. The poly A RNA template (GE Amersham catalog number 27-4110) was a homopolymeric RNA pre-annealed to a oligo(rU)16 primer at a molar ratio of 3-to-1 (primer-template).
The amount of light emitted from the scintillant was converted to counts per minute (CPM) on a Topcount® plate reader (Perkin-Elmer, Energy Range: Low, Efficiency Mode: Normal, Count Time: 1 min, Background Subtract: none, Cross talk reduction: Off).
Data was analyzed in Excel® (Microsoft®) and ActivityBase® (Idbs®). The reaction in the absence of enzyme was used to determine the background signal, which was subtracted from the enzymatic reactions. Positive control reactions were performed in the absence of compound, from which the background corrected activity was set as 100% polymerase activity. All data was expressed as a percentage of the positive control. […]

| SMILES | IC50 [nM] |
| --- | --- |
| Nc1nccc(-c2ccc(-c3cc4c(s3)c(=O)ncn4Cc3ccc(Cl)cc3)cc2)n1 [Compound I-10, 6-[4-(2-Amino-pyrimidin-4-yl)-phenyl]-1-(4-chloro-benzyl)-1H-thieno[3,2-d]pyrimidin-4-one] | 29 |
| Cc1ccc(Cn2cnc(=O)c3sc(-c4ccc(C(=O)O)cc4)cc32)cc1 [Compound I-36] | 535 |
| O=C(Nc1ccc(-c2cc3c(s2)c(=O)ncn3Cc2ccc(Cl)cc2)cc1)c1cc(F)ccc1F [Compound I-7, N-{4-[1-(4-Chloro-benzyl)-4-oxo-1,4-dihydro-thieno[3,2-d]pyrimidin-6-yl]-phenyl}-2,5-difluoro-benzamide] | 21 |
| O=C(Nc1ccc(-c2cc3c(s2)c(=O)ncn3Cc2ccc(Cl)cc2)cc1)N1CCCC1 [Compound I-54, Pyrrolidine-1-carboxylic acid {4-[1-(4-chloro-benzyl)-4-oxo-1,4-dihydro-thieno[3,2-d]pyrimidin-6-yl]-phenyl}-amide] | 76 |
| Cc1cc(N)n2nc(-c3ccc(-c4cc5c(s4)c(=O)ncn5C[C@H]4CC[C@H](C)CC4)cn3)cc2n1 [Compound I-43, 6-[6-(7-Amino-5-methyl-pyrazolo[1,5-a]pyrimidin-2-yl)-pyridin-3-yl]-1-(4-methyl-cyclohexylmethyl)-1H-thieno[3,2-d]pyrimidin-4-one] | 428 |
| Cc1cc(C(=O)Nc2ccc(-c3cc4c(s3)c(=O)ncn4Cc3ccc(Cl)cc3)cc2)n[nH]1 [Compound I-15, 5-Methyl-1H-pyrazole-3-carboxylic acid {4-[1-(4-chloro-benzyl)-4-oxo-1,4-dihydro-thieno[3,2-d]pyrimidin-6-yl]-phenyl}-amide] | 70 |
| O=c1ncn(Cc2ccc(Cl)cc2)c2cc(-c3ccc(SCc4ccccc4)cc3)sc12 [Compound I-20, 6-(4-Benzylsulfanyl-phenyl)-1-(4-chloro-benzyl)-1H-thieno[3,2-d]pyrimidin-4-one] | 104 |
| O=c1ncn(Cc2ccc(Cl)cc2)c2cc(-c3ccc(N4CCCC4)cc3)sc12 [Compound I-56, 1-(4-Chloro-benzyl)-6-(4-pyrrolidin-1-yl-phenyl)-1H-thieno[3,2-d]pyrimidin-4-one] | 1610 |
| O=c1ncn(Cc2ccc(Cl)cc2)c2cc(-c3ccc(Oc4ccccc4)cc3)sc12 [Compound I-24, 1-(4-Chloro-benzyl)-6-(4-phenoxy-phenyl)-1H-thieno[3,2-d]pyrimidin-4-one] | 150 |
| O=c1ncn(Cc2ccc(Cl)cc2)c2cc(-c3ccc(OCc4ccc(F)cc4)cc3)sc12 [Compound I-5, 1-(4-chloro-benzyl)-6-[4-(4-fluoro-benzyloxy)-phenyl]-1H-thieno[3,2-d]pyrimidin-4-one] | 13 |
| O=c1ncn(Cc2ccc(Cl)cc2)c2cc(-c3ccc(SCc4ccccn4)cc3)sc12 [Compound I-48, 1-(4-Chloro-benzyl)-6-[4-(pyridin-2-ylmethylsulfanyl)-phenyl]-1H-thieno[3,2-d]pyrimidin-4-one] | 163 |
| Cc1ccc(Cn2cnc(=O)c3sc(-c4ccc(-c5ccccc5)cc4)cc32)cc1 [Compound I-13] | 45 |
| COc1ccc(COc2ccc(-c3cc4c(s3)c(=O)ncn4Cc3ccc(Cl)cc3)cc2)cc1 [Compound I-11, 1-(4-chloro-benzyl)-6-[4-(4-methoxy-benzyloxy)-phenyl]-1H-thieno[3,2-d]pyrimidin-4-one] | 32 |
| O=C(Nc1ccc(-c2cc3c(s2)c(=O)ncn3Cc2ccc(Cl)cc2)cc1)c1ccno1 [Compound I-32, Isoxazole-5-carboxylic acid {4-[1-(4-chloro-benzyl)-4-oxo-1,4-dihydro-thieno[3,2-d]pyrimidin-6-yl]-phenyl}-amide] | 308 |
| O=C(Nc1ccc(-c2cc3c(s2)c(=O)ncn3Cc2ccc(Cl)cc2)cc1)c1cnccn1 [Compound I-12, Pyrazine-2-carboxylic acid {4-[1-(4-chloro-benzyl)-4-oxo-1,4-dihydro-thieno[3,2-d]pyrimidin-6-yl]-phenyl}-amide] | 32 |
| CCCCOc1ccc(-c2cc3c(s2)c(=O)ncn3Cc2ccc(Cl)cc2)cc1Cl [Compound I-25, 6-(4-Butoxy-3-chloro-phenyl)-1-(4-chloro-benzyl)-1H-thieno[3,2-d]pyrimidin-4-one] | 155 |
| O=C(Nc1ccc(-c2cc3c(s2)c(=O)ncn3Cc2ccc(Cl)cc2)cc1)c1ccc(O)cn1 [Compound I-46, 5-Hydroxy-pyridine-2-carboxylic acid, {4-[1-(4-chloro-benzyl)-4-oxo-1,4-dihydro-thieno[3,2-d]pyrimidin-6-yl]-phenyl}-amide] | 17 |
| O=C(Nc1ccc(-c2cc3c(s2)c(=O)ncn3Cc2ccc(Cl)cc2)nc1)c1ccccn1 [Compound I-40, Pyridine-2-carboxylic acid {6-[1-(4-chloro-benzyl)-4-oxo-1,4-dihydro-thieno[3,2-d]pyrimidin-6-yl]-pyridin-3-yl}-amide] | 131 |
| O=C(Nc1ccc(-c2cc3c(s2)c(=O)ncn3Cc2ccc(Cl)cc2)cc1F)c1ccccc1 [Compound I-14, N-{4-[1-(4-Chloro-benzyl)-4-oxo-1,4-dihydro-thieno[3,2-d]pyrimidin-6-yl]-2-fluoro-phenyl}-benzamide] | 69 |
| Cc1nnc(-c2ccc(-c3cc4c(s3)c(=O)ncn4Cc3ccc(Cl)cc3)cc2)o1 [Compound I-33, 1-(4-Chloro-benzyl)-6-[4-(5-methyl-[1,3,4]oxadiazol-2-yl)-phenyl]-1H-thieno[3,2d]pyrimidin-4-one] | 390 |
| CC(C)C(=O)Nc1ccc(-c2cc3c(s2)c(=O)ncn3Cc2ccc(Cl)cc2)cc1F [Compound I-55] | 1790 |
| Cc1cc(N)n2nc(-c3ccc(-c4cc5c(s4)c(=O)ncn5Cc4ccc(Cl)cc4)cn3)cc2n1 [Compound I-42, 6-[6-(7-Amino-5-methyl-pyrazolo[1,5-a]pyrimidin-2-yl)-pyridin-3-yl]-1-(4-chloro-benzyl)-1H-thieno[3,2-d]pyrimidin-4-one] | 19 |
| Cc1ncoc1C(=O)Nc1ccc(-c2cc3c(s2)c(=O)ncn3Cc2ccc(Cl)cc2)cc1 [Compound I-18, 4-Methyl-oxazole-5-carboxylic acid {4-[1-(4-chloro-benzyl)-4-oxo-1,4-dihydro-thieno[3,2-d]pyrimidin-6-yl]-phenyl}-amide] | 77 |
| Cc1cc(N)n2nc(-c3ccc(-c4cc5c(s4)c(=O)ncn5C[C@H]4CC[C@@H](C)CC4)cc3Cl)cc2n1 [Compound I-4, 6-[4-(7-amino-5-methyl-pyrazolo[1,5-a]pyrimidin-2-yl)-3-chloro-phenyl]-1-(4-methyl-cyclohexylmethyl)-1H-thieno[3,2-d]pyrimidin-4-one] | 10 |
| CC(=O)Nc1ccc(-c2cc3c(s2)c(=O)ncn3Cc2ccc(Cl)cc2)cc1 [Compound I-37, N-{4-[1-(4-Chloro-benzyl)-4-oxo-1,4-dihydro-thieno[3,2-d]pyrimidin-6-yl]-phenyl}-acetamide] | 586 |
| O=c1ncn(Cc2ccc(Cl)cc2)c2cc(-c3ccc(SCc4ccncc4)cc3)sc12 [Compound I-59] | 167 |
| O=C(Nc1ccccc1)c1ccc(-c2cc3c(s2)c(=O)ncn3Cc2ccc(Cl)cc2)cc1 [Compound I-47, 4-[1-(4-Chloro-benzyl)-4-oxo-1,4-dihydro-thieno[3,2-d]pyrimidin-6-yl]-N-phenyl-benzamide] | ~40 |
